Results from patent EP0500137A1, “1,2,4-Triazolo[1,5-a]pyrimidine derivatives, a process for preparing them as well as medicaments containing them and the use of them” (EGIS GYOGYSZERGYAR, priority 1991, dated 1992).

Tested on: gastric acid secretion
Test: gastric acid secretion inhibiting effect, method of Shay (pylorus bound, free acid titrated)
Assay type: in vivo, Rats (Wistar breed)
Settings: given 3 hours before the operation, free acid determined 4 hours after the operation, inhibition in relation to the control
Method: Rats of both sexes (Wistar breed, weighing 180-240 g) were fastened for 48 hours. On the day of the test the pylorus of the animals was bound under ether narcosis. The test compounds were administered orally 3 hours before the operation. 4 hours after the operation the animals were anaesthetized and the stomach was removed, the content thereof was centrifuged and the amount of the free acid was determined by titration, in the presence of Töpfer reagent. The inhibition in relation to the control is calculated in percentage.

Which Inhibition % (Dose 30 mg/kg peroral) does the source give for `CSc1nc2nc3c(c(Cl)n2n1)CCC3` [Example 2, 5-Chloro-2-methylthio-6,7-dihydro-8H-cyclopenta[d]-1,2,4-triazolo[1,5-a]pyrimidine] here?
Its Inhibition % is 73%.

`CSc1nc2nc3c(c(Cl)n2n1)CCCC3` [Example 6, 5-Chloro-2-methylthio-6,7,8,9-tetrahydro-1,2,4-triazolo[5,1-b]quinazoline] was tested. Which Inhibition % (Dose 60 mg/kg peroral) did it give?
The Inhibition % was 100%.

Which Inhibition % (Dose 200 mg/kg peroral) does the source give for `Clc1c2c(nc3nc(N4CCOCC4)nn13)CCCC2` [Example 12, 5-Chloro-2-morpholino-6,7,8,9-tetrahydro-1,2,4-triazolo[5,1-b]quinazoline] here?
Its Inhibition % is 85%.

For `COc1cc(C(=S)N2CCOCC2)cc(OC)c1OC` [Trithiozine, 3,4,5-Trimethoxythio-benzoic acid morpholide, reference compound], which Inhibition % (Dose 400 mg/kg peroral) is on record?
The Inhibition % was 63%.
